Measured values reported in the NIST ThermoML archive (doi:10.1016/j.jct.2012.10.012).
“And” between values parts separate entries of the source, which are not always exact repeats. Equal values may be shown once.

Details: Crystal, Calculated from knudsen effusion weight loss

O=C1CNC(=O)CN1 [2,5-diketopiperazine]
Details | vapor or sublimation pressure
419.16 K | 0.000101 kPa and 9.91e-05 kPa and 9.65e-05 kPa
421.11 K | 0.000118 kPa and 0.000119 kPa and 0.000114 kPa
423.15 K | 0.00014 kPa and 0.000137 kPa and 0.000141 kPa
425.16 K | 0.000168 kPa and 0.000156 kPa and 0.000162 kPa
427.1 K | 0.000196 kPa and 0.000188 kPa and 0.000195 kPa
429.14 K | 0.000232 kPa and 0.000226 kPa and 0.000236 kPa
431.17 K | 0.00029 kPa and 0.000257 kPa and 0.000273 kPa
433.11 K | 0.00033 kPa and 0.00032 kPa and 0.000347 kPa
435.15 K | 0.000382 kPa and 0.00038 kPa and 0.00039 kPa
437.19 K | 0.00047 kPa and 0.000459 kPa
439.11 K | 0.000548 kPa and 0.000519 kPa and 0.00052 kPa
441.16 K | 0.000646 kPa and 0.000627 kPa and 0.000626 kPa

CC1NC(=O)C(C)NC1=O (centres undefined) [3,6-dimethyl-2,5-piperazinedione]
Details | vapor or sublimation pressure
388.13 K | 0.000116 kPa and 0.000126 kPa
390.16 K | 0.000142 kPa and 0.000149 kPa and 0.00014 kPa
392.15 K | 0.000171 kPa and 0.000179 kPa
394.13 K | 0.000212 kPa and 0.000216 kPa
396.14 K | 0.00026 kPa and 0.000247 kPa and 0.000267 kPa
398.15 K | 0.000309 kPa and 0.000298 kPa and 0.000325 kPa
400.13 K | 0.000387 kPa and 0.000371 kPa and 0.000388 kPa
402.13 K | 0.000454 kPa and 0.000436 kPa and 0.000463 kPa
404.15 K | 0.000543 kPa and 0.000563 kPa
406.14 K | 0.000696 kPa and 0.000677 kPa and 0.000693 kPa
408.14 K | 0.000821 kPa and 0.000818 kPa and 0.000785 kPa
410.15 K | 0.000977 kPa and 0.000955 kPa and 0.000927 kPa
